Reference: ChEMBL document CHEMBL1123714, “Potential antitumor agents. 48. 3'-Dimethylamino derivatives of amsacrine: redox chemistry and in vivo solid tumor activity” (J Med Chem, 1987)

Test: physchem
Details: 20% DMF

pKa | Structure (SMILES)
7.25 | CN(C)c1cc(NS(C)(=O)=O)ccc1Nc1c2ccccc2nc2ccccc12
7.47 | CNc1cc(NS(C)(=O)=O)ccc1Nc1c2ccccc2nc2ccccc12
